{
  "source": "patent US11202818B2",
  "about": "“Methods and compositions for modulating erythropoiesis” (President and Fellows of Harvard College, priority 2016, dated 2021)",
  "tested_on": "Kit+CD55+Lin-CD71lo BM cells",
  "assay": "ETD activation in cultured pre-ETD BM cells with S phase arrest",
  "format": "cell-based, mouse",
  "description": "To test whether the synchronization of ETD activation with S phase reflects mechanistic dependence, BM cells were isolated prior to the onset of ETD (Kit+CD55+Lin−CD71lo, FIG. 5, Panels f-h). The cells were cultured in the presence of Epo, which allowed them to activate the ETD, reflected first by the upregulation of CD71, followed by the upregulation of the erythroid cell surface marker Ter119, and induction of the beta-globin gene (Hbb-b1). […] The ensuing ETD activation proceeded with a 10-hour delay in the induction of CD71 and Hbb-b1 (FIG. 5, Panels g and h).",
  "key": {"[1]": {"conditions": "added for the first 10 hours of culture with Epo"}},
  "data": [
    {"smiles": "C[C@@]1(CO)[C@H](O)CC[C@@]2(C)[C@H]1CC[C@H]1C[C@@H]3C[C@@]12CC[C@]3(O)CO", "note": "[aphidicolin]", "values": [
      {"measurement": "effect on S phase", "setting": "[1]", "value": "arrested S phase"},
      {"measurement": "effect on upregulation of CD71", "setting": "[1]", "value": "paused upregulation of CD71"},
      {"measurement": "delay in the induction of CD71 and Hbb-b1", "setting": "after removal, added for the first 10 hours", "value": 10, "unit": "h"}
    ]}
  ]
}
